In ChEMBL document CHEMBL5352426, “Synthesis and anti-tumor activity of nitrogen-containing derivatives of the natural product diphyllin” (Eur J Med Chem, 2022):
Converted amounts (≈) assume the structure as drawn.

Legend:
[1] = Antiproliferative activity against human L02 cells assessed as inhibition of cell proliferation at 1 uM incubated for 72 hrs by SRB assay relative to control; assay type: toxicity, cell-based
MIA PaCa-2 [2] = experiment: Antiproliferative activity against human MIA PaCa-2 cells assessed as inhibition of cell proliferation at 1 uM incubated for 72 hrs by SRB assay relative to control; assay type: functional
CFPAC-1 [3] = experiment: Antiproliferative activity against human CFPAC-1 cells assessed as inhibition of cell proliferation at 1 uM incubated for 72 hrs by SRB assay relative to control; assay type: functional
PaTu 8988t [4] = experiment: Antiproliferative activity against human PaTu 8988t cells assessed as inhibition of cell proliferation at 1 uM incubated for 72 hrs by SRB assay relative to control; assay type: functional
Panc02 [5] = experiment: Antiproliferative activity against mouse Panc02 cells assessed as inhibition of cell proliferation at 1 uM incubated for 72 hrs by SRB assay relative to control; assay type: functional
[6] = Antiproliferative activity against human L02 cells assessed as inhibition of cell proliferation incubated for 72 hrs by SRB assay; assay type: toxicity, cell-based
MIA PaCa-2 [7] = experiment: Antiproliferative activity against human MIA PaCa-2 cells assessed as inhibition of cell proliferation incubated for 72 hrs by SRB assay; assay type: functional, cell-based; details: MIA PaCa-2, 72 h
CFPAC-1 [8] = experiment: Antiproliferative activity against human CFPAC-1 cells assessed as inhibition of cell proliferation incubated for 72 hrs by SRB assay; assay type: functional, cell-based; details: CFPAC-1, 72 h
PaTu 8988t [9] = experiment: Antiproliferative activity against human PaTu 8988t cells assessed as inhibition of cell proliferation incubated for 72 hrs by SRB assay; assay type: functional, cell-based
Panc02 [10] = experiment: Antiproliferative activity against mouse Panc02 cells assessed as inhibition of cell proliferation incubated for 72 hrs by SRB assay; assay type: functional, cell-based; details: Panc02, 72 h
[11] = Metabolic stability in human liver microsome assessed as half life; assay type: ADME; details: liver microsomes
[12] = Metabolic stability in human liver microsome assessed as intrinsic clearance; assay type: ADME; details: liver microsomes, read-out: CLH
[13] = Metabolic stability in human liver microsome assessed as hepatic clearance; assay type: ADME; details: microsomes
[14] = Metabolic stability in mouse liver microsome assessed as half life; assay type: ADME; details: liver microsomes
[15] = Metabolic stability in mouse liver microsome assessed as intrinsic clearance; assay type: ADME; details: liver microsomes, read-out: CLH
[16] = Metabolic stability in mouse liver microsome assessed as hepatic clearance; assay type: ADME; details: microsomes
[17] = Aqueous solubility of the compound at 1 to 2 mg measured after 24 hrs by HPLC-MS analysis; assay type: physicochemical; details: aqueous (not further specified), dose 1-2 mg
CFPAC-1 [18] = experiment: Induction of cell cycle arrest in human CFPAC-1 cells assessed as accumulation at G1 phase at 10 nM incubated for 24 hrs by flow cytometry (reference value: 57.6 %); assay type: functional
CFPAC-1 [19] = experiment: Induction of cell cycle arrest in human CFPAC-1 cells assessed as accumulation at S phase at 10 nM incubated for 24 hrs by flow cytometry (reference value: 28.5 %); assay type: functional
CFPAC-1 [20] = experiment: Induction of cell cycle arrest in human CFPAC-1 cells assessed as accumulation at G2 phase at 10 nM incubated for 24 hrs by flow cytometry (reference value: 11 %); assay type: functional
CFPAC-1 [21] = experiment: Induction of cell cycle arrest in human CFPAC-1 cells assessed as accumulation at G1 phase at 100 nM incubated for 24 hrs by flow cytometry (reference value: 57.6 %); assay type: functional
CFPAC-1 [22] = experiment: Induction of cell cycle arrest in human CFPAC-1 cells assessed as accumulation at S phase at 100 nM incubated for 24 hrs by flow cytometry (reference value: 28.5 %); assay type: functional
CFPAC-1 [23] = experiment: Induction of cell cycle arrest in human CFPAC-1 cells assessed as accumulation at G2 phase at 100 nM incubated for 24 hrs by flow cytometry (reference value: 11 %); assay type: functional
CFPAC-1 [24] = experiment: Induction of cell cycle arrest in human CFPAC-1 cells assessed as accumulation at G1 phase at 1000 nM incubated for 24 hrs by flow cytometry (reference value: 57.6 %); assay type: functional
CFPAC-1 [25] = experiment: Induction of cell cycle arrest in human CFPAC-1 cells assessed as accumulation at S phase at 1000 nM incubated for 24 hrs by flow cytometry (reference value: 28.5 %); assay type: functional
CFPAC-1 [26] = experiment: Induction of cell cycle arrest in human CFPAC-1 cells assessed as accumulation at G2 phase at 1000 nM incubated for 24 hrs by flow cytometry (reference value: 11 %); assay type: functional
CFPAC-1 [27] = experiment: Induction of apoptosis in human CFPAC-1 cells assessed as viable cells at 1 uM incubated for 24 hrs by annexin V-FITC/PI staining based flow cytometry (reference value: 92.9 %); assay type: functional; details: read-out: Activity
CFPAC-1 [28] = experiment: Induction of apoptosis in human CFPAC-1 cells assessed as early apoptotic cells at 1 uM incubated for 24 hrs by annexin V-FITC/PI staining based flow cytometry (reference value: 2.93 %); assay type: functional
CFPAC-1 [29] = experiment: Induction of apoptosis in human CFPAC-1 cells assessed as late apoptotic cells at 1 uM incubated for 24 hrs by annexin V-FITC/PI staining based flow cytometry (reference value: 3.88 %); assay type: functional
CFPAC-1 [30] = experiment: Induction of apoptosis in human CFPAC-1 cells assessed as necrotic cells at 1 uM incubated for 24 hrs by annexin V-FITC/PI staining based flow cytometry (reference value: 0.27 %); assay type: functional
CFPAC-1 [31] = experiment: Induction of apoptosis in human CFPAC-1 cells assessed as viable cells at 10 uM incubated for 24 hrs by annexin V-FITC/PI staining based flow cytometry (reference value: 92.9 %); assay type: functional; details: read-out: Activity
CFPAC-1 [32] = experiment: Induction of apoptosis in human CFPAC-1 cells assessed as early apoptotic cells at 10 uM incubated for 24 hrs by annexin V-FITC/PI staining based flow cytometry (reference value: 2.93 %); assay type: functional
CFPAC-1 [33] = experiment: Induction of apoptosis in human CFPAC-1 cells assessed as late apoptotic cells at 10 uM incubated for 24 hrs by annexin V-FITC/PI staining based flow cytometry (reference value: 3.88 %); assay type: functional
CFPAC-1 [34] = experiment: Induction of apoptosis in human CFPAC-1 cells assessed as necrotic cells at 10 uM incubated for 24 hrs by annexin V-FITC/PI staining based flow cytometry (reference value: 0.27 %); assay type: functional
Panc02 [35] = experiment: Antitumor activity against […] Panc02 cells xenografted in C57BL/6 mouse assessed as tumor growth inhibition at 10 mg/kg, ip administered every two days for 20 days by electronic caliper method relative to control; assay type: functional; details: Panc02, 480 h, time 20 day, read-out: TGI
[36] = Toxicity in C57BL/6 mouse xenografted with […] cells assessed as drug tolerance at 10 mg/kg, ip administered every two days for 20 days; assay type: organism-based; details: in vivo, 480 h, time 20 day
[37] = Toxicity in C57BL/6 mouse xenografted with […] cells assessed as body weight loss at 10 mg/kg, ip administered every two days for 20 days; assay type: organism-based; details: in vivo, 480 h, time 20 day

In the case of `COc1cc2c(NC(=O)OC(C)(C)C)c3c(c(-c4ccc5c(c4)OCO5)c2cc1OC)C(=O)OC3`, the inhibition at 72 h, 1 µM [1] is reported as 9.56%, the inhibition at 1 µM (MIA PaCa-2 [2]) is reported as 52.5% and the inhibition at 1 µM (CFPAC-1 [3]) is reported as 70.5%. It also gave an inhibition at 1 µM (PaTu 8988t [4]) of 72%, an inhibition at 1 µM (Panc02 [5]) of 78.1% and an IC50 at 72 h [6] of 5120 nM. For the same molecule, the IC50 (MIA PaCa-2 [7]) was 161 nM, the IC50 (CFPAC-1 [8]) was 37 nM and the IC50 (PaTu 8988t [9]) was 88 nM. For the same molecule, the IC50 (Panc02 [10]) was 261 nM.

Molecule `COc1cc2c(N)c3c(c(-c4ccc5c(c4)OCO5)c2cc1OC)C(=O)OC3` has an inhibition at 72 h, 1 µM [1] of 34.4%, an inhibition at 1 µM (MIA PaCa-2 [2]) of 91% and an inhibition at 1 µM (CFPAC-1 [3]) of 78.6%. It also gave an inhibition at 1 µM (PaTu 8988t [4]) of 89.9%, an inhibition at 1 µM (Panc02 [5]) of 90% and an IC50 at 72 h [6] of 487 nM. For the same molecule, the IC50 (MIA PaCa-2 [7]) was 11 nM, the IC50 (CFPAC-1 [8]) was 3 nM and the IC50 (PaTu 8988t [9]) was 37 nM. The IC50 (Panc02 [10]) was 19 nM, the half-life [11] was 88.7 min and the microsomal CLint [12] was 15.6 µL/min/mg. For the same molecule, the CLH [13] was 9.6 mL/min/kg, the half-life [14] was 28.5 min and the microsomal CLint [15] was 48.7 µL/min/mg. The CLH [16] was 61.3 mL/min/kg, the solubility at 24 h [17] was 0.028 µg/mL (≈ 0.0738 µM) and the Activity (CFPAC-1 [18]) was 74.3%. The Activity (CFPAC-1 [19]) was 15.6%, the Activity (CFPAC-1 [20]) was 8% and the Activity (CFPAC-1 [21]) was 80.9%. The Activity (CFPAC-1 [22]) was 12.7%, the Activity (CFPAC-1 [23]) was 3.61% and the Activity (CFPAC-1 [24]) was 83.8%. The Activity (CFPAC-1 [25]) was 10.3%, the Activity (CFPAC-1 [26]) was 3.66% and the viability at 1 µM (CFPAC-1 [27]) was 84.8%. The Activity (CFPAC-1 [28]) was 2.91%, the Activity (CFPAC-1 [29]) was 11.9% and the Activity (CFPAC-1 [30]) was 0.4%. The viability at 10 µM (CFPAC-1 [31]) was 86.1%, the Activity (CFPAC-1 [32]) was 2.21% and the Activity (CFPAC-1 [33]) was 11%. The Activity (CFPAC-1 [34]) was 0.69%, the inhibition in vivo at 10 mg/kg (Panc02 [35]) was 44.7% and the Activity [36] was “Non-Toxic”. For the same molecule, the Activity [37] was “Non-Toxic”.

Molecule `COc1cc2c(NC(=O)[C@@H](N)COC(C)=O)c3c(c(-c4ccc5c(c4)OCO5)c2cc1OC)C(=O)OC3` has an inhibition at 72 h, 1 µM [1] of -0.71%, an inhibition at 1 µM (MIA PaCa-2 [2]) of 3.38% and an inhibition at 1 µM (CFPAC-1 [3]) of 11.6%. For the same molecule, the inhibition at 1 µM (PaTu 8988t [4]) was 2.63% and the inhibition at 1 µM (Panc02 [5]) was 8.86%.

Work on `COc1cc2c(NC(=O)[C@H](C)N)c3c(c(-c4ccc5c(c4)OCO5)c2cc1OC)C(=O)OC3` yielded an inhibition at 72 h, 1 µM [1] of 1.54%, an inhibition at 1 µM (MIA PaCa-2 [2]) of 0.64% and an inhibition at 1 µM (CFPAC-1 [3]) of 42.7%. The inhibition at 1 µM (PaTu 8988t [4]) was -4.32% and the inhibition at 1 µM (Panc02 [5]) was 25.3%.

In the case of `COC(=O)CNc1c2c(c(-c3ccc4c(c3)OCO4)c3cc(OC)c(OC)cc13)C(=O)OC2`, the inhibition at 72 h, 1 µM [1] is reported as 10.8%, the inhibition at 1 µM (MIA PaCa-2 [2]) is reported as 10.2% and the inhibition at 1 µM (CFPAC-1 [3]) is reported as 48.4%. The inhibition at 1 µM (PaTu 8988t [4]) was 85.2% and the inhibition at 1 µM (Panc02 [5]) was 42%.

Molecule `COc1cc2c(OCCCc3cn([C@H]4O[C@@H](C)[C@H](O)[C@@H](O)[C@H]4O)nn3)c3c(c(-c4ccc5c(c4)OCO5)c2cc1OC)C(=O)OC3` has an inhibition at 72 h, 1 µM [1] of -0.18%, an inhibition at 1 µM (MIA PaCa-2 [2]) of 46.5% and an inhibition at 1 µM (CFPAC-1 [3]) of 45.9%. For the same molecule, the inhibition at 1 µM (PaTu 8988t [4]) was 8.08% and the inhibition at 1 µM (Panc02 [5]) was 16.6%.

`COc1cc2c(OCCOCc3cn([C@H]4O[C@@H](C)[C@H](OC(C)=O)[C@@H](OC(C)=O)[C@H]4OC(C)=O)nn3)c3c(c(-c4ccc5c(c4)OCO5)c2cc1OC)C(=O)OC3` showed an inhibition at 72 h, 1 µM [1] of 16.4%, an inhibition at 1 µM (MIA PaCa-2 [2]) of 72.4% and an inhibition at 1 µM (CFPAC-1 [3]) of 66.7%. The inhibition at 1 µM (PaTu 8988t [4]) was 86.5%, the inhibition at 1 µM (Panc02 [5]) was 53.4% and the IC50 at 72 h [6] was 1040 nM. The IC50 (MIA PaCa-2 [7]) was 756 nM, the IC50 (CFPAC-1 [8]) was 50 nM and the IC50 (PaTu 8988t [9]) was 766 nM. It also gave an IC50 (Panc02 [10]) of 216 nM.

Work on `CNc1c2c(c(-c3ccc4c(c3)OCO4)c3cc(OC)c(OC)cc13)C(=O)OC2` yielded an inhibition at 72 h, 1 µM [1] of 35.5%, an inhibition at 1 µM (MIA PaCa-2 [2]) of 92.3% and an inhibition at 1 µM (CFPAC-1 [3]) of 82.1%. For the same molecule, the inhibition at 1 µM (PaTu 8988t [4]) was 92% and the inhibition at 1 µM (Panc02 [5]) was 91.4%.
